Test results as given in paper PMC2610245 (Drug metabolism and disposition: the biological fate of …, 2008).

Tests used:
[1] = molecular target: T1, P450 2C9 (Homo sapiens, UniProt P11712); experiment: in vitro; conditions: recombinant enzyme, pH 7.4, in vitro half-life (t1/2)
[2] = molecular target: T1, P450 2C9; experiment: Metabolic stability by substrate depletion; conditions: 1 μM substrate, 0.04 μM P450 2C9, NADPH 2 mM, 37°C
[3] = molecular target: T1, P450 2C9; experiment: P450 2C9 inactivation assay; conditions: Hill equation
[4] = molecular target: P450 2C9 Baculosomes (Homo sapiens, UniProt P11712); experiment: Partition ratio by titration method; conditions: 30 min pre-incubation, (S)-flurbiprofen as probe substrate
[5] = ref Kumar et al., 2002; Mano et al., 2007; cited from earlier work
[6] = system: P450 2C9; conditions: in humans; ref Obach et al., 2007; cited from earlier work

T1 sequence (P11712 whole entry): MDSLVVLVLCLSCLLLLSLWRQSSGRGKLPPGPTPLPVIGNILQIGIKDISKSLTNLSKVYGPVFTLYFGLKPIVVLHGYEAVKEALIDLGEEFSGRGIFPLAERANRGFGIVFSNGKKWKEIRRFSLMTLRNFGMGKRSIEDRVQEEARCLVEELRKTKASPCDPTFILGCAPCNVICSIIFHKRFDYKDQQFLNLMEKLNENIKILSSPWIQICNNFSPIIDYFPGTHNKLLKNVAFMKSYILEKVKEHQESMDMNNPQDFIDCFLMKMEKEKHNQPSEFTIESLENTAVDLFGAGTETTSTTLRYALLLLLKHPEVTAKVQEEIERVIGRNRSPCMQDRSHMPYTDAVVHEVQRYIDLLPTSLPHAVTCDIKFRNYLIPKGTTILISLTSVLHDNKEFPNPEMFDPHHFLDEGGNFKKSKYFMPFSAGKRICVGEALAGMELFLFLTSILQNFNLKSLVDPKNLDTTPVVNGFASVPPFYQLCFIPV
Chain of P450 2C9 Baculosomes (P11712 whole entry): as above

C[C@H](C(=O)O)c1ccc(C(=O)c2cccs2)cc1 [(S)-suprofen]
half-life at 1 μM [1]: 35 to 38 min

CC(C(=O)O)c1ccc(C(=O)c2cccs2)cc1 (racemic) [(±)-Suprofen, (±)-suprofen]
in vitro half-life (t1/2) [2]: 50 min
n (Hill coefficient) ([3]; probe substrate (S)-flurbiprofen): 1.4
n (Hill coefficient) ([3]; probe substrate diclofenac): 1.3
partition ratio [4]: 98
turnover number (partition ratio + 1) [4]: 99

C[C@H](C(=O)O)c1ccc(-c2ccccc2)c(F)c1 [(S)-flurbiprofen]
cleared by direct glucuronidation of the carboxylate functional groups [5]: roughly 50%

O=C(O)Cc1ccccc1Nc1c(Cl)cccc1Cl [diclofenac]
cleared by direct glucuronidation of the carboxylate functional groups [5]: roughly 50%

CC(=O)C[C@@H](c1ccccc1)c1c(O)c2ccccc2oc1=O [(S)-warfarin]
fraction metabolized through P450 2C9 (fm2C9) [6]: 0.91

O=C(O)COc1ccc(C(=O)c2cccs2)c(Cl)c1Cl [Tienilic Acid, Tienilic acid]
half-life at 1 μM [1]: 5 min

C[C@@H](C(=O)O)c1ccc(C(=O)c2cccs2)cc1 [(R)-suprofen]
half-life at 1 μM [1]: 35 to 38 min
